# Columns and labels:
# [1] = test system: spasmogenic effect of epinephrine on the isolated guineapig seminal vescicle; assay: adrenergic blockade in vitro: receptor blockade against the spasmogenic effect of epinephrine on the isolated guineapig seminal vescicle; assay type: biochemical; settings: concentration producing 50% inhibition of the effect of epinephrine, estimated graphically
# Experimental: (a) receptors blockade was determined against the spasmogenic effect of
# epinephrine on the isolated guineapig seminal vescicle according to
# Brugger J. (Helv.Physiol. Acta 3, 117, 1945). Concentration producing 50%
# inhibition of the effect of the agonist were estimated graphically for […]
# [2] = acute toxicity (LD50) in mice; settings: mouse, in vivo, iv, standard procedure
# Experimental: (c) LD50 was determined in mice according to the standard procedure.
# [3] = test system: lethal effect of 0.2 mg/Kg epinephrine; assay: adrenergic blockade in vivo: receptor blockade in rats, protection from the lethal effect of epinephrine; settings: Rattus norvegicus, iv, 5 min, dose protecting 50% of animals from the lethal effect of 0.2 mg/Kg epinephrine injected i.v. 5 min later, estimated graphically
# Experimental: (b) receptor blockade was determined in rats according to Luduena F.P. et
# al. (Arch. Int. Pharmacodyn CXXII, 111, 1959). ED50 is the
# graphically estimated dose of antagonist protecting 50% of animals from
# the lethal effect of 0.2 mg/Kg epinephrine, injected i.v. 5 min later.
Compound,adrenergic blockade In vitro IC50 [1],LD50 [2],ED50 [3]
CC(C)[C@@]1(NC(=O)[C@@H]2C[C@@H]3c4cccc5[nH]cc(c45)C[C@H]3N(C)C2)O[C@@]2(O)[C@@H]3CCCN3C(=O)[C@H](Cc3ccc(Cl)cc3)N2C1=O [5'-debenzyl-5'-p-chlorobenzyl dihydroergocristine],0.03 µg/mL,190 mg/kg,0.02 mg/kg
CN1C[C@H](C(=O)N[C@]2(C)O[C@@]3(O)[C@@H]4CCCN4C(=O)[C@H](Cc4ccc(Cl)cc4)N3C2=O)C[C@@H]2c3cccc4[nH]cc(c34)C[C@H]21 [5'-debenzyl-5'-p-chlorobenzyl dihydroergotamine],0.02 µg/mL,150 mg/kg,0.05 mg/kg
CN1C[C@H](C(=O)N[C@]2(C)O[C@@]3(O)[C@@H]4CCCN4C(=O)[C@H](Cc4ccc(Cl)cc4)N3C2=O)C=C2c3cccc4[nH]cc(c34)C[C@H]21 [5'-debenzyl-5'-p-chlorobenzyl ergotamine],0.03 µg/mL,100 mg/kg,0.1 mg/kg
"CC(C)[C@@]1(NC(=O)[C@@H]2C[C@@H]3c4cccc5[nH]cc(c45)C[C@H]3N(C)C2)O[C@@]2(O)[C@@H]3CCCN3C(=O)[C@H](Cc3ccccc3)N2C1=O [Dihydroergocristine, reference compound]",,174 mg/kg,0.03 mg/kg
"CN1C[C@H](C(=O)N[C@]2(C)O[C@@]3(O)[C@@H]4CCCN4C(=O)[C@H](Cc4ccccc4)N3C2=O)C[C@@H]2c3cccc4[nH]cc(c34)C[C@H]21 [Dihydroergotamine, reference compound]",0.02 µg/mL,118 mg/kg,0.08 mg/kg
"CN1C[C@H](C(=O)N[C@]2(C)O[C@@]3(O)[C@@H]4CCCN4C(=O)[C@H](Cc4ccccc4)N3C2=O)C=C2c3cccc4[nH]cc(c34)C[C@H]21 [Ergotamine, reference compound]",0.07 µg/mL,70 mg/kg,0.2 mg/kg

# Source: patent US4230854A, “Analogues of ergot alkaloids” (Societa Farmaceutici Italia S.p.A., priority 1977, dated 1980)
